Source: patent publication US9795570B2, “Modulation of macrophage phenotype by emodin” (University of South Carolina, priority 2016, dated 2017)

Tested on: 4T1 tumors
Test: Survival after surgical removal of primary 4T1 tumors
Type: in vivo, BALB/c mice
Details: 10 mice
Protocol: A cohort of 30 8-week-old, female BALB/c mice were injected with 2×10^5 4T1 cells suspended in 20 μL PBS in each of their fourth mammary fat pads. The mice were randomly divided into three groups with 10 mice in each group. On day 10, tumors had reached a volume of 100-200 mm^3, and were surgically removed. […] Post-surgical treatment began on day 11. This treatment involved each of the three groups receiving 800 μL daily IP injections of one of the following mixtures: PBS with 2% DMSO by volume (Control group), PBS with 1% DMSO by volume and 1% by volume of 50 mg/mL emodin in DMSO, or PBS with 2% by volume of 50 mg/mL emodin in DMSO. […] Daily IP emodin injections were administered until day 24; from day 25 to day 41, emodin was administered every other day. During the 41 days after the tumor removal, 3 mice in the control group died, while 2 mice and 1 mouse died in low emodin group and high emodin group, respectively (FIG. 16).

SMILES: Cc1cc(O)c2c(c1)C(=O)c1cc(O)cc(O)c1C2=O [emodin]
- mice that died during the 41 days after tumor removal (high emodin dose group, approximately 40 mg/kg IP): 1 mouse
- mice that died during the 41 days after tumor removal (low emodin dose group, approximately 20 mg/kg IP): 2 mice
